Results on one molecule are retold here after patent US8148532B2, “Spiro substituted compounds as angiogenesis inhibitors” (priority 2007, dated 2012).

Common to all, as to format: biochemical
In one experiment the target is T1, Flt4(h) (Homo sapiens, UniProt P35916).
T1 construct: purchased Millipore Upstate Ltd
The experiment is described as follows: in vitro tyrosine kinase inhibition, Flt4(h). From the text: (§1) Several in vitro tyrosine kinase inhibition activities can be measured according to the description in Rewcastle, G W, J. Med. Chem. 1996, 39, 918-928 and Edwards M, International Biotechnology Lab 5 (3), 19-25, 1987. Oncogene, 1990, 5: 519-524. The Baculovirus Expression System: A Laboratory Guide, L. A. King 1992. Sambrook et al, 1989, Molecular cloning—A Laboratory Manual, 2nd edition, Cold Spring Harbour Laboratory Press. O'Reilly et al, 1992, Baculovirus Expression Vectors—A Laboratory Manual, W. H. Freeman and Co, New York.
(§2) Receptor tyrosine kinase can be obtained in partially purified form from A-431 cells similar to those described by Carpenter et al., J. Biol. Chem., 1979, 254, 4884, Cohen et al., J. Biol. Chem., 1982, 257, 1523 and by Braun et al., J. Biol. Chem., 1984, 259, 2051. Some of these tests can also be contracted with Millipore Upstate Ltd for screening.

The next experiment has as its target T2, Flt1(h) (Homo sapiens, UniProt P17948).
T2 construct: purchased Millipore Upstate Ltd
The experiment is described as follows: in vitro tyrosine kinase inhibition, Flt1(h).
Text: as §1, §2

The next experiment has as its target T3, KDR(h) (Homo sapiens, UniProt P35968).
T3 construct: purchased Millipore Upstate Ltd
The experiment is described as follows: in vitro tyrosine kinase inhibition, KDR(h).
Text: as §1, §2

The target in the next experiment is T4, FGFR1(h) (Homo sapiens, UniProt P11362).
T4 construct: purchased Millipore Upstate Ltd
T4 sequence (P11362 22-822): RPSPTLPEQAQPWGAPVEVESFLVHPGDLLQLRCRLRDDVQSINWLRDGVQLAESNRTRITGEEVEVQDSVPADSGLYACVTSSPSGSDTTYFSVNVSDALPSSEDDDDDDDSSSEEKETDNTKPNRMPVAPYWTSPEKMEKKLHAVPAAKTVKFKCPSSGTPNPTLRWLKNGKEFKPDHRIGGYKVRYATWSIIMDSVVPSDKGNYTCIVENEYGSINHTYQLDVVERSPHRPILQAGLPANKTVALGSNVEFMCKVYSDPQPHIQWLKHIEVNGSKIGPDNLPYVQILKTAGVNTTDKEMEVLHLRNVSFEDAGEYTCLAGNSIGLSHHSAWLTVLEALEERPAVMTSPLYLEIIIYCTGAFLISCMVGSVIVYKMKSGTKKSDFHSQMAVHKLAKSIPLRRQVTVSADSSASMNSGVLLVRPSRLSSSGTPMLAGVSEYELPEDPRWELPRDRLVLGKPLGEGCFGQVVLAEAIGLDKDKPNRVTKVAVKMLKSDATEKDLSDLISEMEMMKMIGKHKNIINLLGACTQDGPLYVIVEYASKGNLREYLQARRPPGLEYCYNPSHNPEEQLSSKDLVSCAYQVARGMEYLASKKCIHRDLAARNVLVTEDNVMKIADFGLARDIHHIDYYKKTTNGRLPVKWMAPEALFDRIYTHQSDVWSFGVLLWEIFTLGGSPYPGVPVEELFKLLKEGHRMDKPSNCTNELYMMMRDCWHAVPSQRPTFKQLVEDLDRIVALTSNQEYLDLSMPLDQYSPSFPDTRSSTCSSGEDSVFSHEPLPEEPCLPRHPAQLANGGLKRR
Nature of the experiment: in vitro tyrosine kinase inhibition, FGFR1(h).
Text: as §1, §2

T2 sequence (P17948 27-1338): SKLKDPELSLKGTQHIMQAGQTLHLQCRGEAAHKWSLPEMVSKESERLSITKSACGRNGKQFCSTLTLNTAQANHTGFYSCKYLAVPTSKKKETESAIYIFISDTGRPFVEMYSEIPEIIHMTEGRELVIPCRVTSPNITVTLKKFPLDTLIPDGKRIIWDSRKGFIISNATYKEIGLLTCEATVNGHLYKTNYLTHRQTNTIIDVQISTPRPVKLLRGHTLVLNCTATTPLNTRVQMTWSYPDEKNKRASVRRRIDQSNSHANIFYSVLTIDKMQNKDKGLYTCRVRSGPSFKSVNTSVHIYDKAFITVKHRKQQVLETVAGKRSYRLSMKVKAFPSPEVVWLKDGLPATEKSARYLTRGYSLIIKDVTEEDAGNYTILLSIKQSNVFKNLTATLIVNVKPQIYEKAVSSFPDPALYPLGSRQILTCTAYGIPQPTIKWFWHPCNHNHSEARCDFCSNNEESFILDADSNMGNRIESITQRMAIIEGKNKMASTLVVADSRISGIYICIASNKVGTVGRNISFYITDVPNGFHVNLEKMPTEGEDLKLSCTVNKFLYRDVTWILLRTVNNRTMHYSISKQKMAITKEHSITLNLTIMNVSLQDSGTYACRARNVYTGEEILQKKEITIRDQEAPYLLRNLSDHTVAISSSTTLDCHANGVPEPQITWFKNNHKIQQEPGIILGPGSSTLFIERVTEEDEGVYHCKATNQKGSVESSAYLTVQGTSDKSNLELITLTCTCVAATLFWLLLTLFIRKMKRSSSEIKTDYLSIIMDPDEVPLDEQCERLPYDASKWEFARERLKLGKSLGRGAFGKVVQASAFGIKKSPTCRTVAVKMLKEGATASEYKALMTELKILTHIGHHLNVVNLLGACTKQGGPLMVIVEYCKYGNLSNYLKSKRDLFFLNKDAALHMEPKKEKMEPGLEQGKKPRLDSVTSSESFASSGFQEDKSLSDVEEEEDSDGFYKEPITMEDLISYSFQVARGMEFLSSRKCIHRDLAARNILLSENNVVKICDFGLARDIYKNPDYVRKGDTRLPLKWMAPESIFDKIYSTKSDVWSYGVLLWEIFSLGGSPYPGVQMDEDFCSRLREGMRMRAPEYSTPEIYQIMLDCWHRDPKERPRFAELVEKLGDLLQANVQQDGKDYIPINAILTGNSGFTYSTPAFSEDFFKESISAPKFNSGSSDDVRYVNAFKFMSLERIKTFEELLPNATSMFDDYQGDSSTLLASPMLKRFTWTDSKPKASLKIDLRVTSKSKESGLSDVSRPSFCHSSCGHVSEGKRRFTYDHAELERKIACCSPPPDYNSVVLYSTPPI
T1 sequence (P35916 25-1363): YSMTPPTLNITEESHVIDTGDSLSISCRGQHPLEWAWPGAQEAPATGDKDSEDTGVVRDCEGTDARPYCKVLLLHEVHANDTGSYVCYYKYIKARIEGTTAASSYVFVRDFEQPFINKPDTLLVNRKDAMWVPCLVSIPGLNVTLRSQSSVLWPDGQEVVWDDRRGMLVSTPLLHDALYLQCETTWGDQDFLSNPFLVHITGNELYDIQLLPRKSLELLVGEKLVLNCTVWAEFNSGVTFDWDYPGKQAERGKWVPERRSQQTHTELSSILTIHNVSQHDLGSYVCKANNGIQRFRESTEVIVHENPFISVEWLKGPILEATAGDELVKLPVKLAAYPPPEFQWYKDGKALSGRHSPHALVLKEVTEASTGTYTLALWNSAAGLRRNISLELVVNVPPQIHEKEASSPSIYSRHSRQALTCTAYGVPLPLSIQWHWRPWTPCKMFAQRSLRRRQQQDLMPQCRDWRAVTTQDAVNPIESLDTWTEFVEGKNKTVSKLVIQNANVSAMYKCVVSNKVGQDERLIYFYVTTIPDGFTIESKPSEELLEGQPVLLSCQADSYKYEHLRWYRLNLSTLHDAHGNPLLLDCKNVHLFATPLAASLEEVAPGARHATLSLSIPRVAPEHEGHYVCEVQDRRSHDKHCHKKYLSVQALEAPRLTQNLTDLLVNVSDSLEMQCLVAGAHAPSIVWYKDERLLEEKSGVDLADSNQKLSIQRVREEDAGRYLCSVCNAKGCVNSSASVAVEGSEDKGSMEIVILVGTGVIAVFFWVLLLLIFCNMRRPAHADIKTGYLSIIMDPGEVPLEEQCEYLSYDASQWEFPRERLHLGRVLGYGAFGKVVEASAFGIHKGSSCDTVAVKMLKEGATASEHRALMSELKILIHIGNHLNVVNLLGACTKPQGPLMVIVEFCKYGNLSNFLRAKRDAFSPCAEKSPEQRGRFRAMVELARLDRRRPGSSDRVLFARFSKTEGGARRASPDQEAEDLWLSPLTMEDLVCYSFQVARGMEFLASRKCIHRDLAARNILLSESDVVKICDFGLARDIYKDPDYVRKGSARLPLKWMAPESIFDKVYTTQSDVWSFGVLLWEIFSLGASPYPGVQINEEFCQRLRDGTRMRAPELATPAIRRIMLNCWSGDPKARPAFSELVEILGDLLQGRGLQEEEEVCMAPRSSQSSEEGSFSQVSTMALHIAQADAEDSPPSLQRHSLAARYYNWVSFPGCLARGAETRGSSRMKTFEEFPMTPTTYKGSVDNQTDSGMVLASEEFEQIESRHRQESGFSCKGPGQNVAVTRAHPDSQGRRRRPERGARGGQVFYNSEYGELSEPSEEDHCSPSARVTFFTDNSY
T3 sequence (P35968 20-1356): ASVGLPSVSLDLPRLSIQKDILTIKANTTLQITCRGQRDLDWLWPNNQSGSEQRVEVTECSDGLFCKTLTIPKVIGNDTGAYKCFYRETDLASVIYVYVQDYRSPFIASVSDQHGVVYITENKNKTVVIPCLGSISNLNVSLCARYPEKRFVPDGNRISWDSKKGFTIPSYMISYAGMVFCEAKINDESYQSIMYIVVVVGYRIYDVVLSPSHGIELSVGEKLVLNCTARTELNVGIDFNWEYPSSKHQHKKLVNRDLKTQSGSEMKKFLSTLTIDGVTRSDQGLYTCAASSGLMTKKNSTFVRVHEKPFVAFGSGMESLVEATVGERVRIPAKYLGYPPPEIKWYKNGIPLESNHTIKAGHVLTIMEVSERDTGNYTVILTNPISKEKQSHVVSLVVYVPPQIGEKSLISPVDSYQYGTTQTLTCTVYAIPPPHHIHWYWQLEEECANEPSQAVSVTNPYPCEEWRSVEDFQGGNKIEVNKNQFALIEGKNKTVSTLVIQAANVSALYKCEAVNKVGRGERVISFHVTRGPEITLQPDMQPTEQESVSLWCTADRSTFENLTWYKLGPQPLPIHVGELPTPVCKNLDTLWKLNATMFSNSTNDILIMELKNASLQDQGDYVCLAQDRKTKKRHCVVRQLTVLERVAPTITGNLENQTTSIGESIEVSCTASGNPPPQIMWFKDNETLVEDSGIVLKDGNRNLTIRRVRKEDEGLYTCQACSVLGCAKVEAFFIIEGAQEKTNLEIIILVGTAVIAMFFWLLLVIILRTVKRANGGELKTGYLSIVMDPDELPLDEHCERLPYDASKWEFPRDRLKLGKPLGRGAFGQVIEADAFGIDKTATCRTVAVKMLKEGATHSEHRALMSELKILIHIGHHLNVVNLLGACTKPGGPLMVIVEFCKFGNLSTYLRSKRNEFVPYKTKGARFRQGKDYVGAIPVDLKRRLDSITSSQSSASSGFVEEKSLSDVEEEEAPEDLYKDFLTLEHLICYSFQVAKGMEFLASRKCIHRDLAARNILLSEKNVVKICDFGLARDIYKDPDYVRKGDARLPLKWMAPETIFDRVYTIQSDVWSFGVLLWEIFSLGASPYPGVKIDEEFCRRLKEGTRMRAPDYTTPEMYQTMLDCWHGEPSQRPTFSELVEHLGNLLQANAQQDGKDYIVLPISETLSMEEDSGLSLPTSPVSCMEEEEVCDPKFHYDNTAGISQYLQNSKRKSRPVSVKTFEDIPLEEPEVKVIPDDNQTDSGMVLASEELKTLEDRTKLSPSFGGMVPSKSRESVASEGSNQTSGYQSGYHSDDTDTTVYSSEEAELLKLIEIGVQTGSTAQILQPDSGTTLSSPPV

`COc1cc2c(Oc3ccc4[nH]c(C)cc4c3F)ccnc2cc1OCC1(N)CC1` [AL3818]: the IC50 against Flt4(h) was found to be 1 nM; on Flt1(h) it was 4 nM; against KDR(h), 45 nM; against FGFR1(h), 20 nM.
